One series has as its system aggregated human αSyn. Nature of the series: Antibody-inducing ability in cynomolgus monkeys: ELISA antibody titer with respect to aggregated human αSyn. Format: in vivo. The conditions noted are these: i.m. three times at 2-week interval, Alum; AJ conjugates 2,000 μg/monkey, KLH-DMPVDPDN 75 μg/monkey; FIG. 4B. Here is the method: The antibody-inducing ability of the AJ-human αSyn peptide conjugate with respect to human αSyn and aggregated human αSyn in cynomolgus monkeys was evaluated. The AJ-human αSyn peptide conjugates (AJ-p54, AJ-p150, AJ-p283, AJ-p142, and AJ-p273) (2,000 μg/monkey) and KLH-DMPVDPDN (75 μg/monkey) were intramuscularly administered to cynomolgus monkeys (males, 3 to 7 years old, SNBL, Ltd.) three times at a 2-week interval using Alum (InvivoGen, 200 μg/monkey) as an adjuvant. Blood was collected before administration and 4, 6, 8, and 10 weeks after the first administration to recover the serum. ELISA was performed by the following method.
96-well plates were coated with human αSyn (Sigma-Aldrich) or aggregated human αSyn (StressMarq Biosciences Inc.) at 0.2 μg/well or 15 ng/well. After washing with PBST once, blocking was performed with 3% skim milk (FUJIFILM Wako Pure Chemical Corporation). After washing with PBST three times, diluted serum was added to cause a reaction at room temperature for 1 hour. Furthermore, after washing with PBST three times, Goat anti-Monkey IgG-HRP (Bio-Rad Laboratories, Inc.) was added to cause a reaction at room temperature for 1 hour. […] An equal volume of a TMB Stop Solution (KPL) was added to stop the reaction, and the absorbance at 450 nm was measured.
For orientation: ELISA stands for enzyme-linked immunosorbent assay.

A further series concerns human αSyn. As to the kind of experiment: Antibody-inducing ability in mice: ELISA antibody titer of immune serum with respect to human αSyn. Format: in vivo, mouse. Put shortly: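 Female balb/c mice, 6 weeks old, immunized i.m. twice 2 weeks apart with peptide conjugates (250 μg/mouse; KLH-DMPVDPDN 25 μg/mouse) plus Alum 50 μg/mouse. Serum taken 2 weeks after second dose. IgG titer measured by ELISA on human αSyn (0.2 μg/well) or aggregated αSyn (15 ng/well), A450; titers expressed as log relative to control conjugate.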

No end group written: not given here. KLH = keyhole limpet hemocyanin

“KLH-C-DMPVDPDN ({KLH}-CDMPVDPDN) [KLH-DMPVDPDN, comparison vaccine, reference compound]”: in the series with aggregated human αSyn, the “Induction of the antibody to aggregated human αSyn in cynomolgus monkeys” value is “not induced”. In addition, the “Induction of the antibody to human αSyn in the mouse serum (in words)” value in the series with human αSyn (Example 2, balb/c mice) is reported as “induction of the antibody to human αSyn was also confirmed”. Further, in the series on human αSyn (Example 2, balb/c mice, i.m. twice at 2-week interval, Alum, AJ conjugates 250 μg/mouse, KLH-DMPVDPDN 25 μg/mouse, serum 2 weeks after second administration), the “Antibody titer with respect to human αSyn (N = 4 − 6, mean ± standard deviation)” value is given as 5461 ± 2365. In addition, in the series with human αSyn (Example 4, balb/c mice), the “Induction of the antibody to human αSyn (in words)” value is “induced the antibody to human αSyn”. In addition, the “Antibody titer with respect to human αSyn (mean ± standard deviation)” value in the series with human αSyn (Example 4, balb/c mice, i.m. twice at 2-week interval, Alum, AJ conjugates 250 μg/mouse, KLH-DMPVDPDN 25 μg/mouse) is 1792 ± 1536.

Source of the values: patent publication US20240270801A1, “EPITOPE PEPTIDE OF HUMAN ALPHA-SYNUCLEIN AND PHARMACEUTICAL COMPOSITION INCLUDING SAID PEPTIDE” (Sumitomo Pharma Co., Ltd., priority 2021, published 2024).
